Experimental findings from patent publication US11766447B2, “3′3′-cyclic dinucleotide analogue comprising a cyclopentanyl modified nucleotide as sting modulator” (INSTITUTE OF ORGANIC CHEMISTRY AND BIOCHEMISTRY ASCR, V.V.I., priority 2019, dated 2023) are described below.

Read-outs that look alike come from different tables or passages of the source.

Assay [1] deals with T1, WT STING (Homo sapiens, UniProt Q86WV6, H232R). The assay is described as follows: Differential scanning fluorimetry (DSF) with WT STING. It counts as binding. The settings on record: thermal shift vs apoprotein; 150 μM CDN; truncated human WT STING 0.1 mg/ml. Details: 8xHis (N, cleaved yes); SUMO (N, cleaved yes); made in house; host or cells: E. coli Rosetta-gami B (DE3). On the procedure:
(§1) Purified PCR products were cleaved with restriction enzymes BamHI (cat. #R0136S, NEB, Ipswich, USA) and NotI (cat. #R0189S, NEB, Ipswich, USA) and cloned into the pSUMO vector linearized with the identical enzymes.
(§2) DNase I (cat. #D5025, Sigma Aldrich, Czech Republic) and RNase A (cat. #R6513, Sigma Aldrich, Czech Republic) were added (final concentration 50 μg/ml) together with MgCl2 (final concentration 5 mmol·l^−1) to the homogenate and bacteria were lysed using French Press G-M™ High-Pressure Cell Press Homogenizer (1500 psi, 3 cycles). […] The resin was poured into a chromatography column, washed with 50 ml buffer A (50 mmol·l^−1 TrisCl (pH 8.0), 800 mmol·l^−1 NaCl, 3 mmol·l^−1 β-mercaptoethanol; 10% glycerol; 20 mmol·l^−1 imidazol) and 8-His-SUMO tagged STING proteins were eluted with 15 ml buffer A containing 300 mmol·l^−1 imidazole. […] Proteins were concentrated with Amicon® Ultra-15 10 K device (cat. #UFC901008, Merck Millipore, Billerica, USA) and flash frozen in liquid N2.
(§3) 20 μL solutions of the reaction mixtures were pipetted in triplicates into 96 well optical reaction plates and thermal denaturation of samples were performed on real time PCR cycler (LightCycler® 480 Instrument II—Roche, Basel, Switzerland). The first derivative of the thermal denaturation curves was performed to calculate denaturing temperatures of STING-CDN complexes and STING apoproteins. The thermal shift for each CDN was calculated by subtracting the average denaturing temperature of STING apoprotein from the average denaturing temperature of STING CDN complex.
Target sequence in this assay (Q86WV6 140-343 H232R): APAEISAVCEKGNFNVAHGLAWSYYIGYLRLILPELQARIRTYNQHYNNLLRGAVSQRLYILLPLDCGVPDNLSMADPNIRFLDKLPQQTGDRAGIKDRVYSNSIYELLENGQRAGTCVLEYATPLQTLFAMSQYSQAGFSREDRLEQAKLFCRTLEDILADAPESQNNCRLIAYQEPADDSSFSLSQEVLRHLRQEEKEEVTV
In general terms: DSF heats the sample and reads unfolding from a dye or from intrinsic fluorescence.

The next assay concerns the target T2, AQ STING (G230A-R293Q) (Homo sapiens, UniProt Q86WV6, G230A/H232R/R293Q).
T2 construct: 8xHis (N, cleaved yes); SUMO (N, cleaved yes); made in house; host or cells: E. coli Rosetta-gami B (DE3)
As to the kind of experiment: Differential scanning fluorimetry (DSF) with AQ STING. It counts as binding. The note with it: thermal shift vs apoprotein; 150 μM CDN; truncated human AQ STING 0.1 mg/ml. On the procedure: as §1, §2, §3

In assay [2] the target is T1, WT STING. The assay is described as follows: Digitonin assay using 293T wtSTING-FL reporter cells. It counts as cell-based. The settings on record: 293T wtSTING-FL cells, ISRE firefly luciferase; compounds in Digitonin buffer 30 minutes, then 5 hours; 8-point curve. Details: host or cells: 293T (ATCC CRL-3216), stably transfected, with 4xISRE firefly luciferase reporter. The text has this:
Two complementary oligonucleotides of the sequence […] […] […] […] […] The oligonucleotides were mixed in equal molar amounts, hybridized, and cleaved by restriction endonucleases HindIII (cat. #. R0104S, NEB, Ipswich, USA) and BglII (cat. #R0144S, NEB, Ipswich, USA). Ultimately, they were ligated into plasmid pGL4.27 (cat. #E6651, Promega, Madison, USA) linearized with the same enzymes. As result the sequence with four ISRE sites was placed upstream of the minimum promoter of firefly luciferase reporter gene.
After 5 minutes incubation at room temperature (RT), 250 μL of the mixture was added dropwise to the cells in one well. Cells were incubated 36 hours at 37° C. with 5% CO2, and then detached with 0.05% Trypsin and 0.22 g/L EDTA (both cat. #L0941, Biowest, Riverside, USA).
Transfected cells were seeded onto poly-D-lysine coated six well plates at density 50,000 cells per 1 cm^2 in DMEM medium with high glucose containing 10% heat inactivated FBS, 30 μg/mL blasticidin (cat. #ant-b1-05, InvivoGen, San Diego, USA), 0.06 mg/ml Penicillin G and 0.1 mg/ml Streptomycin Sulfate (both cat. #. L0018, Biowest, Riverside, USA). The medium was replenished every 3-4 days until visible colonies of cells resistant to blasticidin were formed.
Blasticidin resistant cells stably expressing WT STING were further transfected with […] plasmid following the same procedure as described above. […] Homogeneous culture of stably double transfected cells was prepared by limiting dilution of cells in 96 well plates and wells with cells were selected that originated from a single cell.
The medium was removed next day and three fold serial dilutions of compounds in Digitonin buffer containing 50 mmol·l^−1 HEPES (cat. #H3375, Sigma Aldrich, Czech Republic) pH 7.0, 100 mmol·l^−1 KCl, 3 mmol·l^−1 MgCl2, 0.1 mmol·l^−1 DTT (cat. #D0632, Sigma Aldrich, Czech Republic), 85 mmol·l^−1 Sucrose (cat. #S7903, Sigma Aldrich, Czech Republic), 0.2% BSA (cat. #A2153, Sigma Aldrich, Czech Republic), 1 mmol·l^−1 ATP (cat. #A1852, Sigma Aldrich, Czech Republic), 0.1 mmol·l^−1 GTP (cat. #G8877, Sigma Aldrich, Czech Republic), and 10 μg/mL Digitonin A (cat. #D141, Sigma Aldrich, Czech Republic) were added to the cells. The buffer was removed after 30 minutes incubation at 37° C. with 5% CO2, the cells were washed once with 100 μl of cultivation medium, and 100 μl of medium was added to each well. The plates with cells were incubated for 5 hours at 37° C. with 5% CO2, 50 μl of the medium was removed and 30 μl of ONE-Glo™ Luciferase Assay System reagent (cat. #E6120, Promega, Madison, USA) was added to each well. Luminescence was read on Synergy H1 (Biotek, Winooski, USA). GraphPad Prism (La Jolla, USA) was used to calculate the 50% effective concentration ([…] from an 8-point dose-response curve.
Target sequence in this assay (Q86WV6 whole entry H232R, the tested form may be a part): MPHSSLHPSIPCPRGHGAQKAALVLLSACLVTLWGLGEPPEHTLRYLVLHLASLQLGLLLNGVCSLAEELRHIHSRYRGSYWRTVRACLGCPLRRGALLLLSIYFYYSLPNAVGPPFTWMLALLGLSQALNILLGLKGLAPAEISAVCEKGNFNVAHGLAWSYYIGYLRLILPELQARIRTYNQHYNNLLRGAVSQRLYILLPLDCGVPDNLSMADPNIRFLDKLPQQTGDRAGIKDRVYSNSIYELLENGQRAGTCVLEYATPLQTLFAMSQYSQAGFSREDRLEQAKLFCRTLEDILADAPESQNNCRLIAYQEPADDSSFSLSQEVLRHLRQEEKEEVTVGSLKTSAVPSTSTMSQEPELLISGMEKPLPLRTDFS

For assay [3], the system named is peripheral blood mononuclear cells (PBMC). As to the kind of experiment: Peripheral blood mononuclear cell (PBMC) assay. It counts as cell-based. The note with it: 1 h with compounds, washed, 15 hour incubation, average of one to four donors. On the procedure: Selected compounds were tested in an in vitro peripheral blood mononuclear cell (PBMC) assay. […] Serially diluted tested compounds were added to wells in 50 μl of cultivation medium and cell were incubated with compounds for 1 h at 37° C. with 5% CO2. Plates with cells were then spun 500 g for 5 minutes and medium was removed. Cells were washed twice with the cell culture medium by the use of centrifugation and gently resuspended in 100 μl medium without compounds. After 15 hour incubation at 37° C. with 5% CO2, the cell culture medium was collected and the levels of interferon-alpha (INF-α), interferon-gamma (INF-γ) and tumor necrosis factor-alpha (TNF-α) were determined with ProcartaPlex Assays (ThermoFisher, Waltham, USA) and MAGPIX System (Merck KGaA, Darmstadt, Germany). […] Values reported are an average of runs from one to four donors.

T2 sequence (Q86WV6 140-343 G230A/H232R/R293Q): as the sequence (Q86WV6 140-343 H232R) above, with G91A, R154Q counted along it

Broadly, the ΔTm is the shift of the melting midpoint relative to a reference. In general, EC50 refers to the concentration at which the effect is half-maximal. Consider `Nc1ncnc2c1ncn2[C@@H]1C[C@@H]2COP(=O)(O)O[C@H]3[C@@H](F)[C@H](n4cnc5c(N)ncnc54)O[C@@H]3COP(=O)(O)O[C@H]2[C@@H]1F` [Compound 127, (1R,6R,8R,9R,10R,15R,17R,18R)-8,17-bis(6-amino-9H-purin-9-yl)-9,18-difluoro-3,12-dihydroxy-2,4,7,11,13-pentaoxa-3λ^5,12λ^5-diphosphatricyclo[13.3.0.0^6,10]octadecane-3,12-dione], for which the figures for the ΔTm at 150 µM at WT STING [1] and at AQ STING (G230A-R293Q) were 2.6 °C and 7.9 °C, respectively. Moreover, the EC50 on WT STING [2] came to 100 nM.

On to `Nc1ncnc2c1ncn2[C@H]1CC2OP(=O)(O)OC[C@H]3O[C@@H](n4cnc5c(N)ncnc54)CC3OP(=O)(O)OC[C@H]2C1` (stereo partly drawn) [Compound 126, (2R,3aS,7aR,9R,10aS,14aR)-2,9-bis(6-amino-9H-purin-9-yl)-5,12-dihydroxydecahydro-2H-cyclopenta[d]furo[3,2-j][1,3,7,9]tetraoxa[2,8]diphosphacyclododecine 5,12-dioxide], for which the ΔTm at 150 µM was determined as 1.1 °C on WT STING [1] and 7.5 °C at AQ STING (G230A-R293Q). Also, the EC50 on WT STING [2] came out at 1800 nM.

Take `Nc1nc2c(ncn2[C@@H]2O[C@@H]3COP(=O)(O)OC4C(O)[C@H](n5cnc6c(N)ncnc65)C[C@@H]4COP(=O)(O)OC3C2O)c(=O)[nH]1` (stereo partly drawn) [Compound 108, 2-amino-9-((2R,3R,3aS,7aR,9R,10S,10aR,14aR)-9-(6-amino-9H-purin-9-yl)-3,5,10,12-tetrahydroxy-5,12-dioxidodecahydro-2H-cyclopenta[d]furo[3,2-j][1,3,7,9]tetraox[2,8]diphosphacyclododecin-2-yl)-1,9-dihydro-6H-purin-6-one]: the values for the shift in melting temperature (ΔTm) at 150 µM at WT STING [1] and on AQ STING (G230A-R293Q) were 5.2 °C and 14.3 °C, respectively. For the same molecule, at WT STING [2], the EC50 amounted to 40 nM.

For the molecule `Nc1ncnc2c1ncn2[C@@H]1C[C@@H]2COP(=O)(O)OC3C(O)[C@H](n4cnc5c(N)ncnc54)C[C@@H]3COP(=O)(O)OC2C1O` (stereo partly drawn) [Compound 133, (2R,3S,3aR,7aR,9R,10S,10aR,14aR)-2,9-bis(6-amino-9H-purin-9-yl)-3,5,10,12-tetrahydroxydodecahydrodicyclopenta[d,j][1,3,7,9]tetraoxa[2,8]-diphosphacyclododecine 5,12-dioxide], the thermal shift (ΔTm) at 150 µM at WT STING [1] was found to be 0.6 °C; on AQ STING (G230A-R293Q), 4.4 °C. Also, at WT STING [2], the EC50 is 1200 nM.

Consider `Nc1nc2c(ncn2[C@H]2CC3OP(=O)(S)OC[C@H]4O[C@@H](n5cnc6c(N)ncnc65)C(F)C4OP(=O)(S)OC[C@H]3C2)c(=O)[nH]1` (single isomer, unassigned) [Compound 129b], for which the “DSF ΔTm (° C.) WT STING” value on WT STING [1] stood at 7.0 °C. Further, at AQ STING (G230A-R293Q), the “DSF ΔTm (° C.) AQ STING” value was 13.2 °C. In addition, the EC50 on WT STING [2] worked out at 200 nM.

For the molecule `Nc1ncnc2c1ncn2[C@@H]1C[C@@H]2COP(=O)(O)O[C@H]3[C@@H](F)[C@H](n4cnc5c(N)ncnc54)O[C@@H]3COP(=O)(O)O[C@H]2[C@H]1O` [Compound 134, (1R,6R,8R,9R,10R,15R,17R,18S)-8,17-bis(6-amino-9H-purin-9-yl)-9-fluoro-3,12,18-trihydroxy-2,4,7,11,13-pentaoxa-3λ^5,12λ^5-diphosphatricyclo[13.3.0.0^6,10]octadecane-3,12-dione], the ΔTm at 150 µM was found to be 6.4 °C at WT STING [1] and 13.2 °C on AQ STING (G230A-R293Q). Further, the EC50 on WT STING [2] was determined as 20 nM.

On to `Nc1nc2c(ncn2[C@@H]2O[C@@H]3COP(=O)(O)O[C@@H]4[C@@H](COP(=O)(O)O[C@H]3[C@H]2F)C[C@@H](n2cnc3c(N)ncnc32)[C@@H]4F)c(=O)[nH]1` [Compound 131, (1R,6R,8R,9R,10R,15R,17R,18S)-8-(2-amino-6-oxo-6,9-dihydro-1H-purin-9-yl)-17-(6-amino-9H-purin-9-yl)-9,18-difluoro-3,12-dihydroxy-2,4,7,11,13-pentaoxa-3λ^5,12λ^5-diphosphatricyclo[13.3.0.0^6,10]octadecane-3,12-dione], for which the ΔTm at 150 µM at WT STING [1] worked out at 13.4 °C; on AQ STING (G230A-R293Q), 21.4 °C. Further, the 50% effective concentration (EC50) at WT STING [2] worked out at 10 nM.

For `Nc1ncnc2c1ncn2[C@@H]1C[C@@H]2COP(=O)(S)OC3C(F)[C@H](n4cnc5c(N)ncnc54)O[C@@H]3COP(=O)(S)OC2C1F` (single isomer, unassigned) [Compound 102c], the concentration giving a half-maximal response (EC50) on WT STING [2] came out at 10 nM.

As for `CC(C)(C)C(=O)OCSP1(=O)OC[C@H]2O[C@@H](n3cnc4c(=O)[nH]c(N)nc43)[C@H](F)[C@@H]2OP(=O)(SCOC(=O)C(C)(C)C)OC[C@H]2C[C@@H](n3cnc4c(N)ncnc43)[C@H](F)[C@@H]2O1` (single isomer, unassigned) [Compound 150a], the concentration for a half-maximal effect (EC50) in assay [3] (interferon-alpha level, read-out: PBMC EC50 (μM) IFN-α) came out at 1 µM; in assay [3] (interferon-gamma level, read-out: PBMC EC50 (μM) IFN-γ), 0.7 µM; in assay [3] (tumor necrosis factor-alpha level, read-out: PBMC EC50 (μM) TNF-α), 0.7 µM.

As to `COC1C2OP(=O)(O)OC[C@H]3C[C@@H](n4cnc5c(=O)[nH]c(N)nc54)C(O)C3OP(=O)(O)OC[C@H]2O[C@H]1n1cnc2c(N)ncnc21` (stereo partly drawn) [Compound 118, (6R,8R,15R,17R)-17-(2-amino-6-oxo-6,9-dihydro-1H-purin-9-yl)-8-(6-amino-9H-purin-9-yl)-3,12,18-trihydroxy-9-methoxy-2,4,7,11,13-pentaoxa-3λ^5,12λ^5-diphosphatricyclo[13.3.0.0^6,10]octadecane-3,12-dione], the ΔTm at 150 µM worked out at 0.5 °C on WT STING [1] and 1.5 °C at AQ STING (G230A-R293Q).

For `Nc1ncnc2c1ncn2[C@@H]1C[C@@H]2COP(=O)(S)O[C@H]3C[C@H](n4cnc5c(N)ncnc54)O[C@@H]3COP(=O)(S)O[C@H]2[C@H]1F` (single isomer, unassigned) [Compound 142a], the concentration for a half-maximal effect (EC50) on WT STING [2] amounted to 30 nM.
